Laboratory results from publication PMC8398779, “VEGFR-Mediated Cytotoxic Activity of Pulicaria undulata Isolated Metabolites: A Biological Evaluation and In Silico Study” (Life, 2021).
In brackets after ≈: the same amount, converted by molar mass.

Experiments:
[1] = test system: breast cancer cell line (MCF-7); assay: Sulphorhodamine B (SRB) antiproliferative assay on MCF-7; settings: Homo sapiens, MCF7, 48 h
Experimental: The potential cytotoxic activities of the P. undulata extract and isolated compounds against breast cancer cell line (MCF-7) were evaluated using a Sulphorhodamine-B (SRB) assay.

[2] = test system: normal Vero cell line; assay: Sulphorhodamine B (SRB) assay on normal Vero cell line; settings: Chlorocebus sabaeus, 48 h
[3] = test system: VEGF-B; assay: Serum VEGF-B by ELISA in EAC-bearing mice; format: in vivo, Swiss albino female mice; settings: day 21, extract 200 mg/kg PO, compounds 50 mg/kg PO, days 7-21, vs control EAC
Experimental: (§1) Swiss albino female mice obtained from the Egyptian Organization for Biological Products and Vaccines (Vacsera, Egypt), and weighing 25–30 g were used. The mice were kept in plastic cages with mesh floor and hardwood bedding at 25 °C temperature under normal light/dark cycle, with water and food provided ad libitum. Mice were left to acclimatize for 1 week before the experiments. They were randomly divided into nine groups (7 mice each). The first group served as the normal group and received saline. EAC cells were inoculated in all other groups. Group 2 was considered the EAC control. Group 3 received (200 mg/kg) of P. undulata extract PO three times weekly. Groups (4–9) received (50 mg/kg) of Xanthoxyline, Oleanolic acid, Stigmasterol, Salvigenin, Rhamnetin and Dihydroquercetin 4′-methyl ether, respectively, PO three times daily. All compounds were dissolved in saline.
(§2) The day of tumor inoculation was considered as day zero (0). Treatment of groups (3–9) started at the 7th day after tumor inoculation, and continued for 2 weeks until day 21. The in vivo study was in accordance with the Guide for the Care and Use of Laboratory animals. The study protocol was approved by the ethical committee of Faculty of Pharmacy, Suez Canal University (code of approval 20201907RA2)
On the 21st day of EAC cells inoculation, blood samples were collected under light ether anesthesia from the orbital sinus (retro-orbital plexus). The blood samples were left to clot for 20 min followed by separation of the serum by centrifugation at 4000 rpm for 15 min. Mice were sacrificed by cervical dislocation and tumor discs were separated, weighed and fixed in 10% neutral buffered formalin for immunohistochemical investigations.
Serum samples were stored at (−20 °C) and used for determination of the level of VEGF-B by ELISA kit (ab213897) (Abcam, Cambridge, UK) according to the manufacturer’s protocol.

[4] = test system: CD34; assay: Immunohistochemistry of CD34 expression in EAC tumor tissue; format: in vivo, Swiss albino female mice; settings: day 21, extract 200 mg/kg PO, compounds 50 mg/kg PO, vs control EAC
Experimental: as §1, §2
On the 21st day of EAC cells inoculation, blood samples were collected under light ether anesthesia from the orbital sinus (retro-orbital plexus). The blood samples were left to clot for 20 min followed by separation of the serum by centrifugation at 4000 rpm for 15 min. […]
(§3) For immunohistochemical examination, the tumor discs were fixed in 10% neutral buffered formalin overnight and then embedded in paraffin. When analyzed, all paraffin-embedded tissues were sectioned at 4-μm, deparaffinized in xylene, and hydrated through graded ethyl alcohol series in decreasing concentrations (100%, 90%, 80% and 70%). […] The expression of VEGFR-2 and CD34 were assessed and percentage of stained area was measured.

[5] = test system: VEGFR-2; assay: Immunohistochemistry of VEGFR-2 expression in EAC tumor tissue; format: in vivo, Swiss albino female mice; settings: day 21, extract 200 mg/kg PO, compounds 50 mg/kg PO, vs control EAC
Experimental: as §1
The day of tumor inoculation was considered as day zero (0). […]
as §3

[6] = test system: Ehrlich ascites carcinoma (EAC) solid tumors; assay: Weight of EAC solid tumors in mice; format: in vivo, Swiss albino female mice; settings: day 21, extract 200 mg/kg PO, compounds 50 mg/kg PO, days 7-21, vs control EAC
Experimental: Cells of EAC were purchased from Tumor Biology Department, National Cancer Institute, Cairo University. EAC is a murine spontaneous breast cancer that served as the original tumor from which an ascites variant was obtained. Ascetic fluid was aspired under aseptic conditions from the peritoneal cavity of tumor-bearing mice. The viability and contamination of EAC cells were tested using trypan blue dye exclusion technique. Trypan blue dye stains dead cells only. EAC cells with 90% viability or more were suspended in normal saline (2.5 × 10^6 cells/0.1 mL). The mice were inoculated intradermally with 0.l ml EAC suspension on the lower ventral side after shaving.
as §1, with “Groups (4–9) received (50 mg/kg) of Xanthoxyline, Oleanolic acid, Stigmasterol, Salvigenin, Rhamnetin and Dihydroquercetin 4′-methyl ether, respectively, PO three times daily. All compounds were dissolved in saline.” left out

| Compound | IC50 [1] [µg/mL] | IC50 [2] [µg/mL] | serum VEGF-B levels [3] | CD34 expression (immunohistochemistry, stained area) [4] | VEGFR-2 expression (immunohistochemistry, stained area) [5] | tumor weight [6] |
| --- | --- | --- | --- | --- | --- | --- |
| COc1cc(O)c(C(C)=O)c(OC)c1 [Compound 1, 2-hydroxy-4,6-dimethoxyacetophenone] | 23.5 ± 0.09 (≈ 120 µM) | 46 ± 0.28 (≈ 234 µM) | nearly normalize VEGF-B levels | – | – | – |
| CC[C@H](/C=C/[C@@H](C)[C@H]1CC[C@H]2[C@@H]3CC=C4C[C@@H](O)CC[C@]4(C)[C@H]3CC[C@]12C)C(C)C [Compound 2, Stigmasterol] | 47 ± 0.06 (≈ 114 µM) | > 50 | nearly normalize VEGF-B levels | poor expression of CD34 | – | – |
| CC1(C)CC[C@]2(C(=O)O)CC[C@]3(C)C(=CC[C@@H]4[C@@]5(C)CC[C@H](O)C(C)(C)[C@@H]5CC[C@]43C)[C@@H]2C1 [Compound 3, Oleanolic acid] | 30 ± 0.14 (≈ 65.7 µM) | > 50 | – | – | significantly (p < 0.05) lowered VEGFR-2 expression | – |
| COc1ccc(-c2cc(=O)c3c(O)c(OC)c(OC)cc3o2)cc1 [Compound 4, 5-hydroxy-4’,6,7-trimethoxyflavone] | 18 ± 0.08 (≈ 54.8 µM) | > 50 | nearly normalize VEGF-B levels | poor expression of CD34 | – | – |
| COc1cc(O)c2c(=O)c(O)c(-c3ccc(O)c(O)c3)oc2c1 [Compound 5, 5,3’,4’-trihydroxy-7 methoxyflavonol] | 18.5 ± 0.12 (≈ 58.5 µM) | > 50 | nearly normalize VEGF-B levels | least expression of CD34 | lowest expression | least tumor weights |
| COc1ccc(C2Oc3cc(O)cc(O)c3C(=O)C2O)cc1O (stereo not drawn) [Compound 6, dihydroquercetin 4′-methyl ether] | 22.5 ± 0.06 (≈ 70.7 µM) | > 50 | – | – | – | least tumor weights |
| COc1cccc2c1C(=O)c1c(O)c3c(c(O)c1C2=O)C[C@@](O)(C(=O)CO)C[C@@H]3O[C@H]1C[C@H](N)[C@H](O)[C@H](C)O1 [Doxo, doxorubicin, reference compound] | – | 24.9 ± 0.17 (≈ 45.8 µM) | – | – | – | – |
